The nature of data set [1]: Rapid equilibrium dialysis. Type of data set: in vitro ADME. Conditions: human, plasma, pH 7.4. In general terms: Equilibrium dialysis compares concentrations on both sides of a semipermeable membrane.
The nature of data set [2]: Plasma stability, 37°C for 20 min, human plasma. Type of data set: in vitro ADME. Conditions: 5% CO2, 20 min, mean ± SEM.
The nature of data set [3]: Ultrafiltration. To be noted: human; for recovery at 20 min, 10 μM: human plasma; for fraction unbound at 20 min, 10 μM: plasma.
For data set [4] the following is noted: human, cited from earlier work.
The nature of data set [5]: Ultrafiltration. Format: in vitro ADME, mouse. To be noted: for recovery at 20 min, 10 μM / fraction unbound at 20 min, 10 μM: mouse; for recovery at 20 min, 10 μM / % Recovery from plasma / %PPB (UF): mouse plasma; for fraction unbound at 20 min, 10 μM: plasma; for % Recovery from plasma / %PPB (UF): 10 μM, mean ± SEM, n=3; for % Recovery from plasma: UF mass balance; for %PPB (UF): mass balance.

Data set [6] can be described thus: Rapid equilibrium dialysis. Type of data set: in vitro ADME, mouse. Conditions: for fraction unbound at 4 h, 10 μM: mouse, plasma, pH 7.4.
Data set [7] in a line: Plasma stability as stated in text, species not specified. Format: in vitro ADME. Conditions: 20 minute incubation at 37°C.
The conditions of data set [8]: longer than 20 min; cited from earlier work.
A short description of data set [9]: in vitro. Conditions: human.

Where a name gives a salt, the structure may show the parent alone. Read-outs that look alike come from different tables or passages of the source.

The fraction unbound is free concentration divided by total concentration. Higher therefore signals much free substance. On to `CC(=O)Nc1ccc(O)cc1` [Acetaminophen], for which the free fraction (fraction unbound) at 4 h, 10 μM in data set [1] was 0.79; in [6], 0.611. Besides, the “%Stability” value in data set [2] came to 98.6±2.6%. The recovery at 20 min, 10 μM in data set [3] turned out to be 102.6 ± 0.9%; in [5], 97.2 ± 2.5%. The values for the fraction unbound at 20 min, 10 μM in data set [3] and in [5] were 0.733 and 0.701, respectively. Besides, the “%PPB (Literature)” value in [4] (ref 20) is 24±7 [20] %.
Regarding `C[C@]12CCC(=O)C=C1CC[C@@H]1[C@@H]2[C@@H](O)C[C@@]2(C)[C@H]1CC[C@]2(O)C(=O)CO` [Hydrocortisone], the figures for the fraction unbound at 4 h, 10 μM in data set [1] and in data set [6] were 0.279 and 0.412, respectively. The “%Stability” value in [2] is listed as 98.5±1.1%. Moreover, the recovery at 20 min, 10 μM in [3] is 104 ± 3.3%; in data set [5] it was 102 ± 4%. For the same compound, the fraction unbound at 20 min, 10 μM in [3] is 0.368; in data set [5], 0.519. For the same compound, the “%PPB (Literature)” value in data set [4] (ref 8) is given as 65%; in data set [4] (ref 23), 80%.
As to `O=C(Nc1cccc2cccnc12)c1ccc(N2C(=O)[C@@H]3[C@H](C2=O)[C@@H]2C=C[C@H]3C2)cc1` [IWR1], the stability in plasma entry in data set [7] was “stable”. Also, the “stability in plasma over longer periods of time” value in [8] was “known instability”. For the same compound, in [5], the “% Recovery from plasma” value came to 81.1±2.1% and the “%PPB (UF)” value is reported as 95.5±0.9%.
As for `COc1ccc2c(c1)c(CC(=O)O)c(C)n2C(=O)c1ccc(Cl)cc1` [Indomethacin], the fraction unbound at 4 h, 10 μM is 0.002 in [1] and 0.013 in [6]. The “%Stability” value in data set [2] is 111.0±8.8%. Moreover, the recovery at 20 min, 10 μM in data set [3] was determined as 89.7 ± 7.2%; in data set [5] it was 99 ± 9.7%. For the same compound, the figures for the fraction unbound at 20 min, 10 μM in data set [3] and in data set [5] were 0.004 and 0.011, respectively. The “%PPB (Literature)” value in [4] (ref 23) is 99 [23] %.
For the compound `O=S(=O)(Nc1ccccc1)c1ccc(NC(=S)Nc2ccccc2)cc1` [LED209E], in data set [5], the “% Recovery from plasma” value is reported as 101.0±1.5% and the “%PPB (UF)” value was determined as 99.3±0.1%. In addition, in data set [6] (mouse plasma, 10 μM, 4 hours at 37°C, mean ± SEM, n=3), the “%PPB (RED)” value is recorded as 99.2±0.1%.
For `CC[C@H](C)C(=O)O[C@H]1C[C@@H](C)C=C2C=C[C@H](C)[C@H](CC[C@@H]3C[C@@H](O)CC(=O)O3)[C@H]21` [Lovastatin], the fraction unbound at 4 h, 10 μM in data set [1] is 0.004; in [6], 0.084. In [2], the “%Stability” value is on record as 96.2±5.1%. The figures for the recovery at 20 min, 10 μM in [3] and in data set [5] were 87.6 ± 3.6% and 82.1 ± 8.8%, respectively. Besides, the fraction unbound at 20 min, 10 μM in [3] was 0.026; in data set [5] it was 0.029. In addition, the “%PPB (Literature)” value in data set [4] (ref 21) was >95 [21] %.
Turning to `OC(CNc1ccccc1)Cn1c2ccc(Br)cc2c2cc(Br)ccc21` (stereo not drawn) [P7C3], in data set [5], the “% Recovery from plasma” value amounted to 100.0±9.4%.
As for `CC(=O)O[C@H]1C(=O)[C@@]2(C)[C@H]([C@H](OC(=O)c3ccccc3)[C@]3(O)C[C@H](OC(=O)[C@H](O)[C@@H](NC(=O)c4ccccc4)c4ccccc4)C(C)=C1C3(C)C)[C@]1(OC(C)=O)CO[C@@H]1C[C@@H]2O` [Paclitaxel], the fraction unbound at 4 h, 10 μM in data set [1] was 0.03; in [6], 0.024. Besides, the “%Stability” value in [2] was 104.8±2.0%. The results for the recovery at 20 min, 10 μM in data set [3] and in data set [5] were 87.6 ± 2.2% and 90.8 ± 3.2%, respectively. The fraction unbound at 20 min, 10 μM in data set [3] is 0.132; in data set [5], 0.046. Besides, the “%PPB (Literature)” value in [4] (ref 23) was 88 [23] %.
In the case of `CC(C)NCC(O)COc1cccc2ccccc12` (stereo not drawn) [Propranolol HCl], the fraction unbound at 4 h, 10 μM in [1] was 0.166; in data set [6], 0.264. Also, in [2], the “%Stability” value is given as 98.7±1.2%. Also, the recovery at 20 min, 10 μM in [3] is 100 ± 1.6%; in data set [5], 104 ± 7.6%. Besides, the fraction unbound at 20 min, 10 μM in data set [3] was 0.328; in [5], 0.326. In addition, the “%PPB (Literature)” value in data set [4] (ref 8) was 65–70 [8] %.
In data set [5], `Nc1ccc(S(=O)(=O)Nc2ncccn2)cc1` [Sulfadiazine] had a recovery at 20 min, 10 μM of 108 ± 2% and a free fraction (fraction unbound) at 20 min, 10 μM of 0.403. In data set [6], this compound gave a fraction unbound at 4 h, 10 μM of 0.47.
Take `COc1cc(NS(=O)(=O)c2ccc(N)cc2)nc(OC)n1` [Sulfadimethoxine]: in data set [5], the recovery at 20 min, 10 μM worked out at 109 ± 1.1% and the fraction unbound at 20 min, 10 μM was 0.04. Further, the fraction unbound at 4 h, 10 μM in data set [6] is 0.044.
On the same counts, the results for `Cc1ccnc(NS(=O)(=O)c2ccc(N)cc2)n1` [Sulfamerazine] are 107 ± 1.8%, 0.184 and 0.195.
On to `Cc1nnc(NS(=O)(=O)c2ccc(N)cc2)s1` [Sulfamethiazole], for which the fraction unbound at 4 h, 10 μM in [1] was 0.108; in data set [6], 0.353. For the same compound, the “%Stability” value in data set [2] stood at 101.9±0.4%. Besides, the recovery at 20 min, 10 μM in data set [3] was 99.4 ± 1.7%; in [5], 104 ± 1.2%. For the same compound, the fraction unbound at 20 min, 10 μM in [3] is 0.184; in data set [5], 0.348. In addition, the “%PPB (Literature)” value in [4] (ref 22) was 85–90 [22] %.
In data set [5], `Nc1ccc(S(=O)(=O)Nc2nccs2)cc1` [Sulfathiazole] showed a recovery at 20 min, 10 μM of 108 ± 2.1% and a fraction unbound at 20 min, 10 μM of 0.402. In addition, in data set [6], the unbound share (fraction unbound) at 4 h, 10 μM is 0.418.
As to `CC(C)(C)NCC(O)c1cc(O)cc(O)c1` (stereo not drawn) [Terbutaline], the fraction unbound at 4 h, 10 μM was 0.627 in data set [1] and 0.638 in [6]. Moreover, the “%Stability” value in data set [2] stood at 106.5±3.3%. Further, the recovery at 20 min, 10 μM in [3] was 104 ± 2.1%; in data set [5] it was 99.6 ± 8.4%. Also, the fraction unbound at 20 min, 10 μM in data set [3] is 0.819; in [5], 0.81. Besides, the “%PPB (Literature)” value in data set [4] (ref 21) is reported as 20%; in [4] (ref 23), 25%.
Consider `CCCCNC(=O)NS(=O)(=O)c1ccc(C)cc1` [Tolbutamide], for which the “%Stability” value in [2] was determined as 102.2±0.8%. The recovery at 20 min, 10 μM in data set [3] was found to be 97.4 ± 0.2%; in data set [5], 106 ± 3.1%.
With `CC[C@]1(O)C[C@@H]2CN(CCc3c([nH]c4ccccc34)[C@@](C(=O)OC)(c3cc4c(cc3OC)N(C)[C@H]3[C@@](O)(C(=O)OC)[C@H](OC(C)=O)[C@]5(CC)C=CCN6CC[C@]43[C@@H]65)C2)C1` [Vinblastine], the figures for the fraction unbound at 4 h, 10 μM in [1] and in data set [6] were 0.113 and 0.073, respectively. Besides, in [2], the “%Stability” value is recorded as 97.5±3.1%. Also, the values for the recovery at 20 min, 10 μM in data set [3] and in data set [5] were 79.1 ± 2.1% and 87.5 ± 2.5%, respectively. In addition, the fraction unbound at 20 min, 10 μM in data set [5] was 0.174.
Consider `CS(=O)(=O)c1ccc(C(=O)Nc2ccc(Cl)c(-c3ccccn3)c2)c(Cl)c1` [Vismodegib], for which, in data set [5], the recovery at 20 min, 10 μM was determined as 94.3 ± 3.7% and the free fraction (fraction unbound) at 20 min, 10 μM is 0.025. This compound had a fraction unbound at 4 h, 10 μM in [6] of 0.009.
As for `O=C(CCCCCCC(=O)Nc1ccccc1)NO` [Vorinostat], the fraction unbound at 4 h, 10 μM was 0.241 in data set [1] and 0.536 in data set [6]. For the same compound, the “%Stability” value in data set [2] is 101.1±1.9%. The recovery at 20 min, 10 μM in data set [3] stood at 100 ± 2.1%; in [5], 98.7 ± 0.6%. Also, the fraction unbound at 20 min, 10 μM in data set [3] is 0.396; in data set [5], 0.622.
As for `CC(=O)CC(c1ccccc1)c1c(O)c2ccccc2oc1=O` (stereo not drawn) [Warfarin], the recovery at 20 min, 10 μM worked out at 94.2 ± 3.8% in data set [9] and 99.8 ± 3.9% in data set [5]. The “%Stability” value in [2] amounted to 100.4±4.5%.

These data come from PMC3545278 (Journal of pharmaceutical and biomedical analysis, 2012).
